Measurements: patent US8372845B2, “Pyrazine derivatives as enac blockers” (Novartis AG, priority 2010, dated 2013)
pIC50: −log10 of the molar value.

Key:
[1] = molecular target: T1, epithelial sodium channel (ENaC) (Homo sapiens, UniProt P37088+P51168+P51170); experiment: Short circuit current (ISC) measurements in Human Bronchial Epithelial cells (HBEC-ENaC); assay type: cell-based; settings: inhibition of amiloride-sensitive ISC, HBECs at air-liquid interface, Ussing chamber, apical addition
T1 construct: host or cells: primary Human Bronchial Epithelial cells (HBECs), differentiated at air-liquid interface
T1 sequence (P37088 1-669): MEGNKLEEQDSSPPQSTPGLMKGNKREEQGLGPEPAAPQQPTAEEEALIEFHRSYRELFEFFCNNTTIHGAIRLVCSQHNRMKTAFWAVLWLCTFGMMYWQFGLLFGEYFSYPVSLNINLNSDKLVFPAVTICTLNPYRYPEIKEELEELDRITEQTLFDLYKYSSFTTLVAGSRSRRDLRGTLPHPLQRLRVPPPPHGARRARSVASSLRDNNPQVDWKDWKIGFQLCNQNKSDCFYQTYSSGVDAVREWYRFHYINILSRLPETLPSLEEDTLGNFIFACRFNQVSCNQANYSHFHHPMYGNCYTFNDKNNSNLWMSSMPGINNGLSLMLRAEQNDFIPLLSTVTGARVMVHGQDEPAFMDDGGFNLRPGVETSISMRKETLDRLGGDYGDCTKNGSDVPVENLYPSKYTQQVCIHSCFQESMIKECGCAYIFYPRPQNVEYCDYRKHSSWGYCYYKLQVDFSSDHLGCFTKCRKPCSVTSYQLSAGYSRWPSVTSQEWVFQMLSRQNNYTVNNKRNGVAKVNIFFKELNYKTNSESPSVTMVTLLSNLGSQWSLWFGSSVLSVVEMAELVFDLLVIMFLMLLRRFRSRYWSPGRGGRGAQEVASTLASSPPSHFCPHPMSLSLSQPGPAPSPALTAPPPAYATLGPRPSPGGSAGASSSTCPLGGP
T1 sequence (P51168 1-640): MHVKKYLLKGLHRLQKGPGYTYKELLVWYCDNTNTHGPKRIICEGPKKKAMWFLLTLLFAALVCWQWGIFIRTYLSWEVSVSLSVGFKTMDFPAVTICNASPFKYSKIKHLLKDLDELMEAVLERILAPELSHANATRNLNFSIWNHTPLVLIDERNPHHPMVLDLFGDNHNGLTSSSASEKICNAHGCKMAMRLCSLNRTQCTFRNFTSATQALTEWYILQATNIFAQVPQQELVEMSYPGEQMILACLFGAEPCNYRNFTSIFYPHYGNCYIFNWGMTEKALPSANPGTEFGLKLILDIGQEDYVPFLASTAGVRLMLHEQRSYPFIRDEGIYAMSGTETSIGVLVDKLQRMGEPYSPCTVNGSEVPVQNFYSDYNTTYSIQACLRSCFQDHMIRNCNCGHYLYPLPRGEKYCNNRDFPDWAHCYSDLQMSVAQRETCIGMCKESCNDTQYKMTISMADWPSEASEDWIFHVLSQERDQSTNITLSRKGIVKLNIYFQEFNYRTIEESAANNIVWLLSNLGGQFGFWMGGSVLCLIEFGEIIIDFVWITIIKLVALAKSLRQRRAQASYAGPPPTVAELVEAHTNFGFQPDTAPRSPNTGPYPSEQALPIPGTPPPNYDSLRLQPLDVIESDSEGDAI
T1 sequence (P51170 1-649): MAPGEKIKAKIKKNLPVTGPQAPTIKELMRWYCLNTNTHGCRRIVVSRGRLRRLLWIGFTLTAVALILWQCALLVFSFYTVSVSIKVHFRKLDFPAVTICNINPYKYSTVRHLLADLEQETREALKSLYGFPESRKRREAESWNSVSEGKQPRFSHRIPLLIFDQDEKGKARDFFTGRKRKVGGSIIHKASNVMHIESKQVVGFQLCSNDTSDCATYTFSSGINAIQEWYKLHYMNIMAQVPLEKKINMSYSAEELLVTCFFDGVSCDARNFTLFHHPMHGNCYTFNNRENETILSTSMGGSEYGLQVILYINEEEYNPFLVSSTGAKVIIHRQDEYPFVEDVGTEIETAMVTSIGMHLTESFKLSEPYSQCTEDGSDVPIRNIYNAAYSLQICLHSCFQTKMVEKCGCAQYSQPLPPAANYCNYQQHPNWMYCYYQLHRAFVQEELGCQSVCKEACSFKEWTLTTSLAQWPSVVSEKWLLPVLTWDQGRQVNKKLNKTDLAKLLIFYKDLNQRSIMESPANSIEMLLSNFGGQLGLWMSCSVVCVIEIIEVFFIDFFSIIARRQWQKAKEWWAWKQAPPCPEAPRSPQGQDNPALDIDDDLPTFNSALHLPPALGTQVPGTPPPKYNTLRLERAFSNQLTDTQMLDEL
Description: Human Bronchial Epithelial cells (HBECs) (Cambrex) were cultured under air-liquid interface conditions to provide a well differentiated mucociliary phenotype.
Medium was changed every 48 hours until cells were 90% confluent. […] Cells were maintained submerged for the first 7 days in culture, after which time they were exposed to an apical air interface for the remainder of the culture period. At this time, media was changed to DMEM:F12 media containing 2% v/v Ultroser G for the remainder of culture. Amphotericin B was removed from all media 3 feeds prior to use in the Ussing Chambers. Cells were used between days 7 and 21 after establishment of the apical-air interface. At all stages of culture, cells were maintained at 37° C. in 5% CO2 in an air incubator.
Short Circuit Current (ISC) Measurements
Snapwell inserts were mounted in Vertical Diffusion Chambers (Costar) and were bathed with continuously gassed Ringer solution (5% CO2 in O2; pH 7.4) maintained at 37° C. containing (in mM): 120 NaCl, 25 NaHCO3, 3.3 KH2PO4, 0.8 K2HPO4, 1.2 CaCl2, 1.2 MgCl2, and 10 glucose. The solution osmolarity was between 280 and 300 mOsmol/kg H2O for all physiological salt solutions used. Cells were voltage clamped to 0 mV (model EVC4000; WPI). RT was measured by applying a 1- or 2-mV pulse at 30-s intervals and calculating RT by Ohm's law. Data were recorded using a PowerLab workstation (ADInstruments).
Test compounds were prepared as a 10 mM stock solution in DMSO (95%). Serial 3-fold dilutions were freshly prepared in an appropriate vehicle (distilled H2O or Ringers solution). The initial concentration was added to the apical chamber as a 1000× concentrate in 5 μL, resulting in a final 1× concentration the 5 mL volume of the Ussing chamber. Subsequent additions of compound were added in a 3.3 μL volume of the 1000× serially diluted stock solution. At the completion of the concentration-response experiment, amiloride (10 μM) was added into the apical chamber to enable the total amiloride-sensitive current to be measured. An amiloride control IC50 was established at the start of each experiment.
Results are expressed as the mean % inhibition of the amiloride-sensitive ISC. […] Cell inserts were typically run in duplicate and the IC50 calculated on the mean % inhibition data.

[2] = Stability in human plasma; assay type: in vitro ADME; settings: pooled human plasma (lithium heparin), 1 μM compound, 37° C., 1 hour incubation
Description: The stability of the compounds of the invention in human plasma may be measured as follows:
Stability in Human Plasma
Blood was taken from healthy volunteers in lithium heparin tubes and plasma was prepared by centrifugal separation of blood cells at 1500 g. Plasma from at least 3 individuals was pooled and used for compound stability determination.
Compounds were prepared in 100% DMSO at a concentration of 10 mM and serially diluted to a concentration of 100 μM. Incubations were performed at a final concentration of 1 μM and were initiated by addition of 3 μl of 100 μM compound stock solution into 297 μl plasma, pre-warmed in a water bath to 37° C., followed by brief vortex mixing. 50 μl aliquots of plasma were removed at 4 timepoints over a 1 hour incubation period and quenched immediately by protein precipitation achieved by addition of the aliquot of plasma to a pre-prepared 96 well plate containing 150 μl of acetonitrile containing an appropriate internal standard. Acetonitrile quenched samples were vortex mixed followed by centrifugation for 20 minutes at 1500 g to remove the precipitated proteins. Initial compound levels (at time=0 minutes) was established by spiking compound into pre-quenched plasma at the same concentration as used in the incubation. The supernatant was then removed, diluted 1:1 with water and analysed for compound remaining by liquid chromatography-tandem mass spectrometry (Waters Acquity HPLC, Applied Biosystems API4000). The plasma elimination rate constant of the compound was calculated by fitting the peak area ratio of compound:internal standard to an exponential decay function and the half life calculated by division of the natural log of 2 by the elimination rate constant (Microsoft Excel).

Row | SMILES | pIC50 [1] | half-life at 1 μM [2]
1 | Nc1nc(N)c(C(=O)/N=C2\NCC3(CCN(C(=O)CCc4ccc(OCC(=O)OCCN5CCCCC5=O)c(Cl)c4)CC3)N2)nc1Cl [Example 4.1, [2-Chloro-4-(3-{2-[(E)-3,5-diamino-6-chloro-pyrazine-2-carbonylimino]-1,3,8-triaza-spiro[4.5]dec-8-yl}-3-oxo-propyl)-phenoxy]-acetic acid 2-(2-oxo-piperidin-1-yl)ethyl ester] | 6.88 | 3 min
2 | CN(CCO)C(=O)COC(=O)COc1ccc(CCC(=O)N2CCC3(CC2)CN/C(=N/C(=O)c2nc(Cl)c(N)nc2N)N3)cc1 [Example 1.1, [4-(3-{2-[(Z)-3,5-Diamino-6-chloro-pyrazine-2-carbonylimino]-1,3,8-triaza-spiro[4.5]dec-8-yl}-3-oxo-propyl)-phenoxy]-acetic acid [(2-hydroxy-ethyl)-methyl-carbamoyl]-methyl ester] | 6.38 | 
3 | Nc1nc(N)c(C(=O)/N=C2\NCC3(CCN(C(=O)c4cccc(S(=O)(=O)NCC5(C(=O)OCC(=O)N6CCCC6C(F)(F)F)CCC5)c4)CC3)N2)nc1Cl (stereo not drawn) [Example 5.2, 1-[(3-{2-[(E)-3,5-Diamino-6-chloro-pyrazine-2-carbonylimino]-1,3,8-triaza-spiro[4.5]decane-8-carbonyl}-benzenesulfonylamino)-methyl]-cyclobutanecarboxylic acid 2-oxo-2-(2-trifluoromethyl-pyrrolidin-1-yl)-ethyl ester] | 7.72 | 39 min
4 | Nc1nc(N)c(C(=O)/N=C2\NCC3(CCN(C(=O)c4cccc(S(=O)(=O)NCCC(=O)OCC(=O)N5CCCC5C(F)(F)F)c4)CC3)N2)nc1Cl (stereo not drawn) [Example 4.0, 3-(3-{2-[(E)-3,5-Diamino-6-chloro-pyrazine-2-carbonylimino]-1,3,8-triaza-spiro[4.5]decane-8-carbonyl}-benzenesulfonylamino)-propionic acid 2-oxo-2-(2-trifluoromethyl-pyrrolidin-1-yl)-ethyl ester] | 7.00 | 28 min
5 | Nc1nc(N)c(C(=O)/N=C2\NCC3(CCN(C(=O)CCc4ccc(OCC(=O)OCC(=O)N5CCOCC5)cc4)CC3)N2)nc1Cl [Example 4.2, [4-(3-{2-[(E)-3,5-Diamino-6-chloro-pyrazine-2-carbonylimino]-1,3,8-triaza-spiro[4.5]dec-8-yl}-3-oxo-propyl)-phenoxy]-acetic acid 2-morpholin-4-yl-2-oxo-ethyl ester] | 6.35 | 4 min
6 | CCN(CC)C(=O)COC(=O)COc1ccc(CCC(=O)N2CCC3(CC2)CN/C(=N\C(=O)c2nc(Cl)c(N)nc2N)N3)cc1 [Example 2.3, [4-(3-{2-[(E)-3,5-Diamino-6-chloro-pyrazine-2-carbonylimino]-1,3,8-triaza-spiro[4.5]dec-8-yl}-3-oxo-propyl)-phenoxy]-acetic acid diethylcarbamoylmethyl ester] | 7.05 | 
7 | CCCN(CCC)C(=O)COC(=O)CCNC(=O)Nc1cccc(C(=O)N2CCC3(CC2)CN/C(=N\C(=O)c2nc(Cl)c(N)nc2N)N3)c1 [Example 5.1, 3-[3-(3-{2-[(E)-3,5-Diamino-6-chloro-pyrazine-2-carbonylimino]-1,3,8-triaza-spiro[4.5]decane-8-carbonyl}-phenyl)-ureido]-propionic acid dipropylcarbamoylmethyl ester] | 7.51 | 2 min
8 | CN(C)C(=O)COC(=O)COc1ccc(CCC(=O)N2CCC3(CC2)CN/C(=N\C(=O)c2nc(Cl)c(N)nc2N)N3)cc1 [Example 1.4, [4-(3-{2-[(E)-3,5-Diamino-6-chloro-pyrazine-2-carbonylimino]-1,3,8-triaza-spiro[4.5]dec-8-yl}-3-oxo-propyl)-phenoxy]-acetic acid dimethylcarbamoylmethyl ester] | 6.52 | 
9 | Nc1nc(N)c(C(=O)/N=C2\NCC3(CCN(C(=O)CCc4ccc(OCC(=O)OCC(=O)OCc5ccccc5)cc4)CC3)N2)nc1Cl [Example 2.2, [4-(3-{2-[(E)-3,5-Diamino-6-chloro-pyrazine-2-carbonylimino]-1,3,8-triaza-spiro[4.5]dec-8-yl}-3-oxo-propyl)-phenoxy]-acetic acid benzyloxycarbonylmethyl ester] | 7.92 | 
10 | Nc1nc(N)c(C(=O)/N=C2\NCC3(CCN(C(=O)CCc4ccc(OCC(=O)OCC(=O)N5CCCCC5)cc4)CC3)N2)nc1Cl [Example 2.4, [4-(3-{2-[(E)-3,5-Diamino-6-chloro-pyrazine-2-carbonylimino]-1,3,8-triaza-spiro[4.5]dec-8-yl}-3-oxo-propyl)-phenoxy]-acetic acid 2-oxo-2-piperidin-1-yl-ethyl ester] | 6.96 | 
